Test results taken from article PMC4406354 (Journal of bone and mineral research : the official journal …, 2015).
pIC50: −log10 of the molar value.

Target: T1, tissue-nonspecific alkaline phosphatase (TNAP) (Homo sapiens, UniProt P05186)
T1 sequence (P05186 18-501): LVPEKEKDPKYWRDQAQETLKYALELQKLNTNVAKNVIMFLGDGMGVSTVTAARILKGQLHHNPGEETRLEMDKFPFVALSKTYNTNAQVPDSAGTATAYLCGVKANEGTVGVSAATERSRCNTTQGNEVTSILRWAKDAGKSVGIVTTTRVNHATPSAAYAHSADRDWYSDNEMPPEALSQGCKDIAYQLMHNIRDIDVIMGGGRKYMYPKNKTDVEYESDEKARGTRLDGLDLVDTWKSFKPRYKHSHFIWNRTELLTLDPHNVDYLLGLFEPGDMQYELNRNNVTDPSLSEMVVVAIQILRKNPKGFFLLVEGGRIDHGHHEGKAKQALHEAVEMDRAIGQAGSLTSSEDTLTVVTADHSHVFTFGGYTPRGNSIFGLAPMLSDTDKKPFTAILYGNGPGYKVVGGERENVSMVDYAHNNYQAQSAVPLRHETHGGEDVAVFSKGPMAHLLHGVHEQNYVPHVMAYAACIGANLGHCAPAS
Assay: in vitro TNAP inhibition IC50
Type: biochemical

COc1ccc(Cl)cc1S(=O)(=O)Nc1cncc(C(N)=O)c1 [SBI-425]
pIC50: 7.85
